Results taken from ChEMBL document CHEMBL1148436, “Structural determinants for high 5-HT(2A) receptor affinity of spiro[9,10-dihydroanthracene]-9,3(')-pyrrolidine (SpAMDA)” (Bioorg Med Chem Lett, 2004).

Assays:
[1] = biological target: Sodium-dependent serotonin transporter (Homo sapiens, UniProt P31645); experiment: Binding affinity towards Serotonin transporter using [3H]paroxetine as radioligand
[2] = biological target: Sodium-dependent noradrenaline transporter (Homo sapiens, UniProt P23975); experiment: Binding affinity towards Norepinephrine transporter using [3H]nisoxitine as radioligand
[3] = biological target: 5-hydroxytryptamine receptor 2A (Homo sapiens, UniProt P28223); experiment: Binding affinity towards 5-hydroxytryptamine 2A receptor using [3H]ketanserin
[4] = biological target: T1, 5-hydroxytryptamine receptor 2C (Homo sapiens, UniProt P28335); experiment: Binding affinity towards 5-hydroxytryptamine 2C receptor using [3H]mesulergine as radioligand
T1 sequence (P28335 whole entry): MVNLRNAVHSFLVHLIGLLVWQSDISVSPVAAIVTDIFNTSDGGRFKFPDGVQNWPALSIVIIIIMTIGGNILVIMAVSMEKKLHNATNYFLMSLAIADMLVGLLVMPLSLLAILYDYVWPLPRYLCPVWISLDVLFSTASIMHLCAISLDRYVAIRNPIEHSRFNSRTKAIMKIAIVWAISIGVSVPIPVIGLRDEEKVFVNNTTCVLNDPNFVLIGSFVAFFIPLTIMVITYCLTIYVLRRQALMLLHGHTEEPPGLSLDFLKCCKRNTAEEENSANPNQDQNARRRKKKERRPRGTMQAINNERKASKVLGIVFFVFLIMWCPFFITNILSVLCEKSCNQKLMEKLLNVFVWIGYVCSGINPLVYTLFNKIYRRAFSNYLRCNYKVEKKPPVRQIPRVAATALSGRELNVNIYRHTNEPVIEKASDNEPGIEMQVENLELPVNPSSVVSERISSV

Structure (SMILES)	Ki [3] [nM]	also measured
c1ccc2c(c1)Cc1ccccc1C21CCNC1	–	Ki [1]: 3900 nM; Ki [2]: 10000 nM
c1ccc2c(c1)CCc1ccccc1C21CCNC1	110	–
c1ccc2c(c1)CCCC21CCNC1 (stereo not drawn)	> 10000	–
c1ccc2c(c1)Cc1ccccc1C21CCCNC1	99	–
c1ccc(C2(c3ccccc3)CCNC2)cc1	4610	–
CN1CCC(=C2c3ccccc3C=Cc3ccccc32)CC1 [CYPROHEPTADINE]	–	Ki [4]: 11 nM
CN(C)CCCN1c2ccccc2CCc2ccccc21 [IMIPRAMINE]	–	Ki [4]: 160 nM
